This note sets out measurements from PubChem BioAssay (NCI).

Among the test systems are SR leukemia; RPMI-8226 leukemia; HT29 colon; DU-145 prostate; TK-10 renal; M14 melanoma; IGROV1 ovarian; MCF7 breast; OVCAR-4 ovarian; SNB-19 CNS.
Common to all, as to assay: NCI-60 cell line screen, 48 h

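Values below derive from 48-hour exposures of cells grown in 96-well plates, with endpoints linearly interpolated between the two concentrations bracketing the appropriate inhibition level. GI50 = concentration required for 50% inhibition of growth. The concentration for full growth arrest is given as TGI.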

Take `C#CCSc1cc(Cl)c(C)cc1S(=O)(=O)Nc1nc2ccccc2o1`: the GI50 was 35.6 µM in the test with SR leukemia; 38.1 µM in the test on RPMI-8226 leukemia; 42.8 µM in the test on HT29 colon; 37.9 µM in the test with DU-145 prostate; 48.5 µM with TK-10 renal; 32.1 µM in the test on M14 melanoma. Moreover, the GI50 with IGROV1 ovarian is 34.8 µM; in the test on MCF7 breast, 49.7 µM; with OVCAR-4 ovarian it was 51 µM; in the test with SNB-19 CNS, 44.5 µM. For the same compound, the TGI with SR leukemia was more than 100 µM; in the test on RPMI-8226 leukemia it was more than 100 µM; in the test on HT29 colon, more than 100 µM; with DU-145 prostate, more than 100 µM; in the test on TK-10 renal, more than 100 µM; with M14 melanoma, 67.9 µM. Further, the TGI with IGROV1 ovarian, with MCF7 breast, with OVCAR-4 ovarian and in the test on SNB-19 CNS was more than 100 µM each time.

On to `CCN(CC)CCCNCc1cc(-c2ccccc2)nc2ccccc12`, for which the GI50 with SR leukemia is 0.348 µM; in the test with RPMI-8226 leukemia it was 2.53 µM; with HT29 colon, 2.77 µM; with DU-145 prostate, 21.2 µM; in the test on TK-10 renal, 5.09 µM; with M14 melanoma, 4.63 µM. The GI50 with IGROV1 ovarian was 23.1 µM; in the test on MCF7 breast it was 4.12 µM; in the test with OVCAR-4 ovarian, 6.91 µM; in the test on SNB-19 CNS, 14.2 µM. Moreover, the TGI was 13.1 µM in the test with SR leukemia; 16.5 µM in the test with RPMI-8226 leukemia; 10.6 µM in the test with HT29 colon; more than 100 µM in the test on DU-145 prostate; 31.8 µM in the test with TK-10 renal; 14.4 µM in the test with M14 melanoma. Further, the TGI in the test with IGROV1 ovarian is more than 100 µM; with MCF7 breast it was 16.9 µM; with OVCAR-4 ovarian, more than 100 µM; in the test with SNB-19 CNS it was more than 100 µM.

As for `CCN(CC)CC(O)CNc1c2ccc([N+](=O)[O-])cc2nc2cc(OC)c(OC)cc12` (configuration not stated), the GI50 with SR leukemia is 0.303 µM; with RPMI-8226 leukemia, 0.359 µM; in the test with HT29 colon, 0.258 µM; in the test with DU-145 prostate, 0.304 µM; in the test with TK-10 renal, 1.94 µM; with M14 melanoma, 0.368 µM. In addition, the GI50 in the test with IGROV1 ovarian is 0.305 µM; in the test with MCF7 breast, 0.0534 µM; in the test with OVCAR-4 ovarian, 0.162 µM; in the test on SNB-19 CNS, 0.24 µM. Further, the TGI came to 11.1 µM in the test with SR leukemia; 2.14 µM in the test on RPMI-8226 leukemia; 1.2 µM with HT29 colon; 1.3 µM in the test with DU-145 prostate; 9.79 µM with TK-10 renal; 1.55 µM in the test with M14 melanoma. For the same compound, the TGI in the test with IGROV1 ovarian is 1.51 µM; in the test with MCF7 breast, 0.761 µM; in the test with OVCAR-4 ovarian, 0.574 µM; with SNB-19 CNS it was 1.31 µM.

On to `Oc1ccc(-c2nc3ccccc3s2)cc1CN(Cc1ccccn1)Cc1ccccn1`, for which the GI50 in the test with SR leukemia was 2.14 µM; in the test on RPMI-8226 leukemia, 2.08 µM; with HT29 colon it was 6.74 µM; with DU-145 prostate, 1.26 µM; with TK-10 renal it was 0.486 µM; with M14 melanoma it was 0.548 µM. Moreover, the GI50 is 1.96 µM with IGROV1 ovarian, 1.19 µM in the test on MCF7 breast, 0.787 µM in the test on OVCAR-4 ovarian and 1.51 µM in the test with SNB-19 CNS. For the same compound, the TGI was more than 100 µM with SR leukemia; 16.6 µM with RPMI-8226 leukemia; 19.9 µM in the test on HT29 colon; 20.8 µM in the test with DU-145 prostate; 34.6 µM in the test on TK-10 renal; 4.6 µM with M14 melanoma. In addition, the TGI was found to be 15.8 µM in the test with IGROV1 ovarian, 15.2 µM in the test with MCF7 breast, 12.8 µM in the test with OVCAR-4 ovarian and 20.8 µM in the test on SNB-19 CNS.

Consider `Cc1ccc(/C(O)=C/C(=O)C(=O)NC23CC4CC(CC(C4)C2)C3)cc1`, for which the TGI in the test with SR leukemia, with RPMI-8226 leukemia, in the test with HT29 colon, in the test with DU-145 prostate, with TK-10 renal and in the test on M14 melanoma was more than 10 µM throughout. Besides, the TGI in the test with MCF7 breast and in the test with OVCAR-4 ovarian was more than 10 µM in each case.

Regarding `CCN(CC)c1ccc(C(O)C2=CC(=O)c3ccccc3C2=O)cc1` (configuration not stated), the GI50 is 0.694 µM in the test with SR leukemia; 1.85 µM in the test with DU-145 prostate; 1.51 µM in the test on TK-10 renal; 2.1 µM in the test with M14 melanoma; 1.53 µM in the test with IGROV1 ovarian; 1.58 µM in the test with MCF7 breast. Besides, the GI50 in the test with OVCAR-4 ovarian is 1.27 µM. Besides, the TGI is 5.26 µM in the test with SR leukemia; 4.27 µM in the test with DU-145 prostate; 3.16 µM in the test with TK-10 renal; 4.57 µM in the test on M14 melanoma; 3.07 µM in the test on IGROV1 ovarian; 6.31 µM in the test on MCF7 breast. The TGI in the test on OVCAR-4 ovarian is 3.1 µM.

In the case of `Cc1cc(Cc2cc(C)c(NC(=O)C(=O)C3CCC4=C(SC5C=CC=CC5N4)C3=O)c(C(C)C)c2)cc(C(C)C)c1NC(=O)C(=O)C1CCC2=C(SC3C=CC=CC3N2)C1=O` (configuration not stated), the TGI in the test on SR leukemia, in the test with RPMI-8226 leukemia, in the test on HT29 colon, in the test with DU-145 prostate, in the test on TK-10 renal and in the test on M14 melanoma was more than 100 µM in each case. For the same compound, the TGI in the test on IGROV1 ovarian, with MCF7 breast and in the test on OVCAR-4 ovarian was more than 100 µM throughout.

For `O=C(Nc1ccc(Cl)c(Cl)c1)Nc1c(Oc2ccc(Cl)c(Cl)c2)ccc(Cl)c1S(=O)(=O)O`, the GI50 in the test on SR leukemia is 0.504 µM; in the test on RPMI-8226 leukemia it was 2.91 µM; in the test with HT29 colon it was 1.84 µM; in the test with DU-145 prostate it was 3.22 µM; in the test on M14 melanoma it was 1.09 µM; with MCF7 breast, 0.388 µM. The GI50 in the test on SNB-19 CNS was 3.42 µM. In addition, the TGI in the test on SR leukemia, in the test with RPMI-8226 leukemia, with HT29 colon, in the test with DU-145 prostate, with M14 melanoma and in the test with MCF7 breast was more than 100 µM throughout. Further, the TGI in the test on SNB-19 CNS was more than 100 µM.

As to `COc1ccc2ccccc2c1C1NC(=O)c2ccccc2N1` (configuration not stated), the TGI with SR leukemia was 1.67 µM; in the test with RPMI-8226 leukemia, 8.06 µM; in the test on DU-145 prostate it was more than 25.2 µM; in the test on TK-10 renal it was more than 100 µM; in the test on M14 melanoma, 10.2 µM; in the test with IGROV1 ovarian, more than 100 µM. Besides, the TGI in the test with MCF7 breast is 29.4 µM; in the test with SNB-19 CNS it was more than 100 µM.

For the compound `Oc1ccc(C(c2ccc(O)cc2)c2ccc(O)cc2)cc1`, the TGI in the test with SR leukemia was 75.3 µM; in the test with RPMI-8226 leukemia, 56.8 µM; in the test with HT29 colon, 41.6 µM; with DU-145 prostate it was 81.6 µM; in the test on TK-10 renal, 63.4 µM; in the test with IGROV1 ovarian, 35.2 µM. Further, the TGI in the test with MCF7 breast was more than 100 µM; in the test on OVCAR-4 ovarian it was 29.1 µM; in the test with SNB-19 CNS, 66.1 µM.
